From ChEMBL document CHEMBL1201862, “PubChem BioAssay data set” (2004)
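Step 1: Grow cells in 96-well plates. Step 2: Expose to compound for 48 hours at 5 concentrations. Step 3: Interpolate endpoints linearly; if unreached, use highest concentration. Here, GI50 denotes the concentration required for 50% inhibition of growth.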 Activity calls are given as the source filed them. Rule as the data show it: active = GI50 up to about 1.1 µM and inactive = higher.

Key:
Experiment in all cases: NCI tumour cell line growth inhibition, 48 h
HCC 2998 = tested on: HCC 2998
SK-OV-3 = tested on: SK-OV-3
NCI-H23 = tested on: NCI-H23
U-251 = tested on: U-251
SW-620 = tested on: SW-620
NCI/ADR-RES = tested on: NCI/ADR-RES
HCT-116 = tested on: HCT-116
SR = tested on: SR
OVCAR-3 = tested on: OVCAR-3
NCI-H226 = tested on: NCI-H226
RPMI-8226 = tested on: RPMI-8226
NCI-H460 = tested on: NCI-H460
CAKI-1 = tested on: CAKI-1
SNB-19 = tested on: SNB-19
KM12 = tested on: KM12
ACHN = tested on: ACHN
MCF7 = tested on: MCF7
MOLT-4 = tested on: MOLT-4
SF-268 = tested on: SF-268
SK-MEL-2 = tested on: SK-MEL-2

Measured: GI50

COc1ccc(-c2oc3cc(-c4cc5oc(-c6ccc(OC)cc6)c(-c6ccc(OC)cc6)c5cc4OC)c(OC)cc3c2-c2ccc(OC)cc2)cc1
inactive: HCC 2998 > 100 µM | SK-OV-3 > 100 µM | NCI-H23 > 100 µM | U-251 > 100 µM | SW-620 > 100 µM | NCI/ADR-RES > 100 µM | HCT-116 > 100 µM | SR > 100 µM | OVCAR-3 > 100 µM | NCI-H226 > 100 µM | RPMI-8226 > 100 µM | NCI-H460 > 100 µM | CAKI-1 > 100 µM | SNB-19 > 100 µM | KM12 > 100 µM | ACHN > 100 µM | MCF7 > 100 µM | MOLT-4 > 100 µM | SF-268 > 100 µM

COc1cccc(CCn2c(N)c(C#N)c3ccc([N+](=O)[O-])cc3c2=O)c1
inactive: HCC 2998 > 46.5 µM | SK-MEL-2 > 46.5 µM | SK-OV-3 > 31.6 µM | NCI-H23 > 46.5 µM | U-251 > 100 µM | SW-620 > 100 µM | NCI/ADR-RES > 46.5 µM | HCT-116 > 46.5 µM | OVCAR-3 > 31.6 µM | NCI-H226 > 31.6 µM | NCI-H460 > 46.5 µM | CAKI-1 > 46.5 µM | SNB-19 98.2 µM | KM12 > 31.6 µM | ACHN > 46.5 µM | MCF7 > 31.6 µM | MOLT-4 > 31.6 µM | SF-268 > 46.5 µM
active: SR 0.073 µM

CC1=CCC2CC1C(C(=O)c1c[nH]c3ccccc13)=NC2(C)C (stereo unspecified)
inactive: HCC 2998 > 100 µM | SK-OV-3 94.4 µM | NCI-H23 87.7 µM | U-251 34.5 µM | SW-620 76 µM | NCI/ADR-RES 59.3 µM | HCT-116 50.4 µM | SR 4.5 µM | OVCAR-3 > 100 µM | NCI-H226 > 100 µM | RPMI-8226 25.1 µM | NCI-H460 52.4 µM | CAKI-1 > 100 µM | SNB-19 > 100 µM | KM12 52.4 µM | ACHN 73.6 µM | MCF7 54.6 µM | MOLT-4 22.9 µM | SF-268 > 100 µM

C=C(C)COc1ccc2c(c1)CCC1C2CCC2(C)C(=O)/C(=N/O)CC12 (stereo unspecified)
active: SR 0.966 µM
inactive: SK-MEL-2 4.14 µM | SK-OV-3 8.55 µM | NCI-H23 3.21 µM | U-251 4.09 µM | SW-620 1.99 µM | NCI/ADR-RES 4.27 µM | HCT-116 1.52 µM | OVCAR-3 3.43 µM | NCI-H226 9.31 µM | RPMI-8226 2.39 µM | NCI-H460 1.57 µM | CAKI-1 1.21 µM | SNB-19 11.8 µM | KM12 2.19 µM | ACHN 3.12 µM | MCF7 2.9 µM | MOLT-4 1.76 µM | SF-268 3.81 µM

Cc1ccc(S(=O)(=O)N(c2ccccc2F)C2CCCCC2O)cc1 (stereo unspecified)
inactive: HCC 2998 74.6 µM | SK-MEL-2 29.4 µM | SK-OV-3 22.3 µM | NCI-H23 34.4 µM | U-251 46.6 µM | SW-620 64.4 µM | NCI/ADR-RES 42.4 µM | HCT-116 18 µM | SR 24.4 µM | OVCAR-3 29.5 µM | NCI-H226 > 100 µM | RPMI-8226 36.9 µM | NCI-H460 45.9 µM | SNB-19 > 100 µM | KM12 33.1 µM | ACHN 57.7 µM | MCF7 21.7 µM | SF-268 38 µM

CCCNC(=O)C(C)C1CCC2(C)C=CC(=O)C(C)=C2C1O (stereo unspecified)
inactive: HCC 2998 > 100 µM | SK-MEL-2 > 100 µM | SK-OV-3 > 100 µM | NCI-H23 > 100 µM | U-251 > 100 µM | SW-620 > 100 µM | NCI/ADR-RES > 100 µM | HCT-116 > 100 µM | OVCAR-3 > 100 µM | NCI-H226 > 100 µM | RPMI-8226 > 100 µM | NCI-H460 > 100 µM | CAKI-1 > 100 µM | SNB-19 > 100 µM | KM12 > 100 µM | MCF7 > 100 µM | MOLT-4 > 100 µM | SF-268 > 100 µM

NC(Cc1cc(I)c(O)c(I)c1)C(=O)O (stereo unspecified)
inactive: HCC 2998 > 500 µM | SK-MEL-2 > 500 µM | SK-OV-3 > 500 µM | NCI-H23 > 287 µM | U-251 > 500 µM | SW-620 163 µM | NCI/ADR-RES > 316 µM | HCT-116 470 µM | OVCAR-3 > 500 µM | NCI-H226 > 500 µM | RPMI-8226 > 500 µM | NCI-H460 301 µM | CAKI-1 45.4 µM | SNB-19 249 µM | KM12 > 500 µM | MCF7 > 394 µM | MOLT-4 401 µM | SF-268 > 484 µM

CN(C)/C=N/CC(O)c1ccccc1 (stereo unspecified)
inactive: SK-MEL-2 > 100 µM | SK-OV-3 > 100 µM | NCI-H23 > 100 µM | U-251 > 10 µM | SW-620 > 100 µM | NCI/ADR-RES > 100 µM | HCT-116 > 100 µM | SR > 100 µM | OVCAR-3 > 100 µM | NCI-H226 > 100 µM | RPMI-8226 > 100 µM | NCI-H460 > 100 µM | CAKI-1 > 100 µM | SNB-19 > 100 µM | KM12 > 100 µM | ACHN > 100 µM | MCF7 > 100 µM | MOLT-4 > 100 µM | SF-268 > 100 µM

NC(=O)c1oc([N+](=O)[O-])c(-c2ccccc2)c1-c1ccccc1
inactive: SK-MEL-2 15.6 µM | SK-OV-3 36.1 µM | NCI-H23 15.4 µM | U-251 24.3 µM | SW-620 27 µM | NCI/ADR-RES 19.4 µM | HCT-116 15.4 µM | SR 6.27 µM | OVCAR-3 1.24 µM | NCI-H226 11 µM | NCI-H460 26.2 µM | CAKI-1 18.4 µM | SNB-19 38.5 µM | KM12 13.6 µM | ACHN 26.2 µM | MCF7 29.5 µM | MOLT-4 17.1 µM | SF-268 37.6 µM

C=C(Br)CN(C)CC(=C)Br
inactive: SK-MEL-2 > 100 µM | SK-OV-3 > 100 µM | NCI-H23 > 100 µM | U-251 > 100 µM | SW-620 > 100 µM | NCI/ADR-RES > 100 µM | HCT-116 > 100 µM | SR > 100 µM | OVCAR-3 > 100 µM | RPMI-8226 > 100 µM | NCI-H460 > 100 µM | CAKI-1 > 100 µM | SNB-19 > 100 µM | KM12 > 100 µM | ACHN > 100 µM | MCF7 > 100 µM | MOLT-4 > 100 µM | SF-268 > 100 µM

C=C1N(C)c2ccc(S(=O)(=O)c3ccc4c(c3)C(C)(C)C(=C)N4C)cc2C1(C)C
inactive: HCC 2998 34.5 µM | SK-MEL-2 41.3 µM | SK-OV-3 > 100 µM | NCI-H23 27.4 µM | U-251 31.5 µM | SW-620 45 µM | NCI/ADR-RES 59 µM | HCT-116 34.5 µM | OVCAR-3 25.4 µM | NCI-H226 > 100 µM | RPMI-8226 9.08 µM | NCI-H460 49.8 µM | CAKI-1 62.4 µM | SNB-19 39.2 µM | KM12 45.5 µM | ACHN 77.8 µM | MCF7 29 µM | MOLT-4 18 µM | SF-268 36.6 µM

O=C(Nc1nc2c(=O)[nH]cnc2s1)c1ccccc1
inactive: HCC 2998 > 100 µM | SK-MEL-2 > 100 µM | SK-OV-3 > 100 µM | NCI-H23 > 100 µM | U-251 > 100 µM | SW-620 > 100 µM | NCI/ADR-RES > 100 µM | HCT-116 > 100 µM | OVCAR-3 > 100 µM | NCI-H226 > 100 µM | NCI-H460 41.5 µM | CAKI-1 43.6 µM | SNB-19 > 100 µM | ACHN 91 µM | MCF7 45.6 µM | SF-268 > 100 µM
active: SR 0.315 µM

CCOC(=O)N/N=C(/N)Cc1ccccc1
inactive: HCC 2998 > 100 µM | SK-MEL-2 > 100 µM | SK-OV-3 > 100 µM | U-251 > 10 µM | SW-620 > 100 µM | NCI/ADR-RES > 100 µM | HCT-116 > 100 µM | SR > 100 µM | OVCAR-3 > 100 µM | NCI-H460 > 100 µM | CAKI-1 > 100 µM | SNB-19 > 100 µM | KM12 > 100 µM | ACHN > 100 µM | MCF7 > 100 µM | MOLT-4 > 100 µM | SF-268 > 100 µM

O=C1NC(=O)C(CC2CCCCCCCCCCC2=O)C(=O)N1 (stereo unspecified)
active: SR 0.041 µM
inactive: HCC 2998 > 100 µM | SK-MEL-2 > 100 µM | SK-OV-3 > 100 µM | NCI-H23 > 100 µM | U-251 > 100 µM | SW-620 > 100 µM | NCI/ADR-RES > 100 µM | HCT-116 > 100 µM | OVCAR-3 > 100 µM | NCI-H226 > 100 µM | NCI-H460 > 100 µM | CAKI-1 > 100 µM | SNB-19 > 100 µM | KM12 > 100 µM | ACHN > 100 µM | MCF7 > 100 µM | MOLT-4 39.6 µM | SF-268 > 100 µM

O=C(NS(=O)(=O)OCC(Cl)(Cl)Cl)SCCC(F)(F)C(F)(F)C(F)(F)C(F)(F)C(F)(F)C(F)(F)F
inactive: SK-MEL-2 25.3 µM | SK-OV-3 17.7 µM | NCI-H23 20.1 µM | U-251 23.6 µM | SW-620 20.2 µM | NCI/ADR-RES 20.2 µM | HCT-116 19.8 µM | SR 32.7 µM | OVCAR-3 24.9 µM | NCI-H226 25.9 µM | RPMI-8226 18.5 µM | NCI-H460 19.6 µM | CAKI-1 30.5 µM | SNB-19 17.9 µM | KM12 19.9 µM | ACHN 40.9 µM | MCF7 20 µM | MOLT-4 29 µM | SF-268 40.4 µM
